{
  "source": "patent US12264163B2",
  "about": "“Compounds and methods for treating fibrotic pathologies” (Mayo Foundation for Medical Education and Research, priority 2019, dated 2025)",
  "key": {"YAP": {"system": "YAP", "assay": "Western blotting of YAP serine 127 phosphorylation", "assay_type": "cell-based, human", "conditions": "IMR-90 cells, 10 μM, 2 hours", "method": "IMR-90 cells cultured for 24 hours in media containing 0.1% FBS, treated 2 hours prior to fixation. N=3 (***p<0.001 vs. 0.1% DMSO vehicle control).\nWestern Blotting: Cells were plated in EMEM containing 10% FBS overnight. Media was exchanged with EMEM containing 0.1% FBS for 24 hours. Prior to protein isolation cells were treated with the indicated concentration of compounds for the indicated time. Total protein was isolated using RIPA buffer (pH 8.0) containing Pierce Phosphatase Inhibitor (Thermo) and Halt Protease Inhibitor Cocktail (Thermo). Lysate total protein concentration was determined using Pierce BCA Protein Assay Kit (Thermo) and samples were run on a 10% polyacrylamide gel. Blots were incubated overnight with primary antibodies: pYAP (Ser 127, Cell Signaling D9W21), YAP/TAZ (Cell Signaling D24E4), GAPDH (Cell Signaling 14C10), HSC70 (Santa Cruz sc-7298), αSMA (Abcam ab5694), and fibronectin (Santa Cruz sc-9068) diluted 1:1000 in Li-Cor Odyssey Blocking Buffer. Blots were washed with TBS-Tween before 60 minute incubation with IR-dye-conjugated secondary antibodies (Li-Cor) diluted 1:10,000. Plates were imaged via a Li-Cor OdysseyXL system with quantification performed via densitometry."}, "CTGF, COL1A1, ACTA2, FN1": {"system": "CTGF, COL1A1, ACTA2, FN1", "assay": "Profibrotic / matrix remodeling gene expression by qPCR in fibroblasts", "assay_type": "cell-based, human", "method": "Genes which encode Connective tissue growth factor (CTGF), Collagen I (COL1A1), αSMA (ACTA2), and Fibronectin (FN1) are reduced by 24 hour treatment with DHX (10 μM), +/−SCH 39166 (3 μM). N=3 (****p<0.0001, ***p<0.001, *p<0.05 vs. 0.1% DMSO vehicle control)\nIPF patient-derived fibroblasts cultured in media containing 0.1% FBS were stimulated for 24 hours with 2 ng/mL TGFβ and 10 μM DHX prior to RNA isolation. Genes which encode for ECM crosslinking: transglutaminase 2 (TGM2), lysyl oxidase and lysyl oxidase-like enzymes (LOX and LOXL1-4), ECM degradation: uPA (PLAU), tPa (PLAT), cathepsin K (CTSK), and matrix metalloprotease-14 (MMP14) and ECM protease inhibitors: metalloprotease inhibitor 3 (TIMP3), and plasminogen activator inhibitor 1 (SERPINE1) were measured. N=3. (****p<0.0001, ***p<0.001, **p<0.01, *p<0.05 vs. 0.1% DMSO vehicle control non-TGFβ treated), (++++p<0.0001, ++p<0.01, +p<0.05 vs. 0.10% DMSO vehicle control TGFβ treated).\nFor all other in vitro experiments, cells were treated as indicated prior to RNA isolation using RNeasy Plus Mini Kit (Qiagen) according to manufacturer's instructions. Isolated RNA (250 ng) was then used to synthesize cDNA using SuperScript VILO (Invitrogen). Quantitative PCR was performed using FastStart Essential DNA Green Master (Roche) and analyzed using a LightCycler 96 (Roche). Data are expressed as a fold change by ΔΔCt relative to GAPDH. For in vivo experiments, tissue was immediately frozen, and stored at −80° C. RNA isolation, cDNA synthesis, and qPCR analysis were performed as above."}, "αSMA": {"system": "αSMA", "assay": "TGFβ-induced αSMA+ stress fiber formation in fibroblasts", "assay_type": "cell-based, human", "conditions": "TGFβ 72 hours, DHX from 48-72 hours", "method": "Media was then exchanged for the indicated conditions for each experiment. Cells were fixed in 3.7% formalin (Sigma-Aldrich), permeabilized in 0.25% Triton X-100 (Sigma-Aldrich) and then blocked with 1% BSA for 1 h. Cells or tissue sections were incubated overnight with mouse monoclonal antibody against αSMA (Sigma-Aldrich F3777), and/or a rabbit monoclonal antibody against YAP/TAZ (Cell Signaling D24E4) diluted 1:200 in PBS with 1% BSA. Cells were then washed and exposed to flourescence-conjugated secondary antibodies (Invitrogen) diluted 1:1000 and DAPI (Thermo Fisher Scientific). Images were taken with a Cytation5 (BioTek) microscope. For scoring αSMA positive cells (FIG. 12), an observer blinded to the treatment conditions counted αSMA-positive cells using a visual threshold for bright fibrous staining; a minimum of 200 cells was counted for each condition. YAP/TAZ localization was quantified (FIGS. 6-10, 24-26, and 29-30) using Gen5 (Biotek) software. Images were taken at 4× magnification of both DAPI and YAP/TAZ staining. […] Quantification of double positive (YAP/TAZ and αSMA) cells from lung tissue sections (FIG. 17-21) was performed similarly; however separate thresholds were established for both YAP/TAZ and αSMA. A minimum of 4000 cells was quantified for each mouse."}, "D1 receptor": {"system": "D1 receptor", "conditions": "cited from earlier work"}},
  "data": [
    {"smiles": "Oc1cc2c(cc1O)[C@H]1c3ccccc3CN[C@@H]1CC2", "note": "(racemic) [Dihydrexidine]", "values": [
      {"measurement": "YAP serine 127 phosphorylation", "setting": "YAP", "result": "promoted YAP serine 127 phosphorylation"},
      {"measurement": "expression of matrix crosslinking, protease inhibitor and matrix degradation genes", "setting": "CTGF, COL1A1, ACTA2, FN1; IPF patient derived fibroblasts, 2 ng/mL TGFβ + 10 μM DHX, 24 hours", "result": "reversed the effects of TGFβ"},
      {"measurement": "expression of profibrotic genes CTGF, COL1A1, ACTA2, FN1", "setting": "CTGF, COL1A1, ACTA2, FN1; IPF patient-derived lung fibroblasts, 10 μM, 24 hour", "result": "reduced"},
      {"measurement": "profibrotic gene expression and extracellular matrix accumulation with constitutively active TAZ", "setting": "CTGF, COL1A1, ACTA2, FN1; NIH-3T3 cells expressing doxycycline-inducible TAZ4SA", "result": "no effect on profibrotic gene expression or extracellular matrix accumulation"},
      {"measurement": "profibrotic gene expression in human dermal fibroblasts", "setting": "CTGF, COL1A1, ACTA2, FN1; human dermal fibroblasts, 24 hours +/− 2 ng/mL TGFβ", "result": "blocks profibrotic gene expression"},
      {"measurement": "TGFβ-induced myofibroblastic transition (αSMA+ stress fibers)", "setting": "αSMA", "result": "reversed this transition"},
      {"measurement": "efficacy at elevating cAMP (D1 receptor)", "setting": "D1 receptor", "result": "full magnitude cAMP response"}
    ]}
  ]
}
